The values below come from US20030199558A1, “Hydroxamic acid and its derivatives as inhibitors of melanocyte tyrosinase for topical skin lighteners” (Integriderm, Inc., priority 2001, published 2003).

In series [1] the test system is Mel Ab melanocyte. The series can be described thus: mammalian Mel Ab melanocyte culture pigment assay. The class given is cell-based, mouse. To be noted: read-out: P: concentration of compound that produces 50% inhibition in the mammalian Mel Ab melanocyte culture pigment assay. An excerpt: (§1) In the present invention, one or more of three in vitro bioassays can be utilized to evaluate the efficacy and toxicity of candidate skin-lightening compounds. The three bioassays characterize the compounds with regard to mammalian tyrosinase enzyme inhibition (cell free), pigmentation in cultured melanocyte cells, and cytotoxicity of mammalian cultured cells. Both cell-based pigmentation and cell-free enzymatic assays have been developed using the mammalian melanocyte cell line, Mel-Ab, a C57BL/6 mouse-derived cell line that produces high levels of melanin. A distinct advantage of this approach is that humans share substantial sequence similarities in their genes (DNA) and proteins (such as tyrosinase) with mice, relative to non-mammalian species (e.g., mushrooms). So, in vitro mouse Mel-Ab melanocytes can serve as adequate surrogates for human melanocytes and Mel-Ab-derived tyrosinase may substitute for the human enzyme for many pharmacologic purposes.
(§2) These adherent murine melanocytes are grown on tissue culture plastic in medium supplemented with fetal bovine serum, 12-O-tetradecanoylphorbol-13-acetate (TPA) to stimulate cell division via down-regulation of protein kinase C, [22, 23] and cholera toxin to stimulate adenylate cyclase activity in the absence of α-MSH. Cellular lysates of Mel-Ab cells may be used as tyrosinase enzyme preparations. Multi-well plate assays have been validated for enzyme inhibition (e.g., DOPA oxidation by calorimetric measurement or radiolabeled substrate incorporation into melanin) and for pigmentation assays on cultured Mel-Ab cells. After 4-6 days of treatment of cultured cells, melanin content is determined using a spectrophotometer at 400+ nm. This assay can detect an apparent loss in pigmentation resulting from either inhibition of de novo synthesis (e.g. via inhibition of tyrosinase, or the adenylate cyclase pathway, or another pathway) or a cytostatic/cytotoxic mechanism. It is therefore a broad primary screen. It is used in parallel with the tyrosinase enzymatic assay to determine whether an inhibitor of pigmentation at the cellular level is acting primarily at the enzyme level.
(§3) Inhibition [μM] as measured in three assays. Here “E” “E” [μM] is the concentration of compound that produces 50% inhibition in the cell-free mammalian tyrosinase enzyme assay is the concentration of compound that produces 50% inhibition in the cell-free mammalian tyrosinase enzyme assay. “P” represents the concentration of compound that produces 50% inhibition in the mammalian Mel Ab melanocyte culture pigment assay system. “T” is the concentration of compound that results in 50% reduction in cell number in the mammalian melanocyte culture toxicity assay system.

In series [2] the target is T1, mammalian tyrosinase (Mus musculus, UniProt P11344).
T1 construct: Cellular lysates of Mel-Ab cells may be used as tyrosinase enzyme preparations; endogenous in cells; host or cells: Mel-Ab mouse melanocytes (cell lysate)
T1 sequence (P11344 19-533): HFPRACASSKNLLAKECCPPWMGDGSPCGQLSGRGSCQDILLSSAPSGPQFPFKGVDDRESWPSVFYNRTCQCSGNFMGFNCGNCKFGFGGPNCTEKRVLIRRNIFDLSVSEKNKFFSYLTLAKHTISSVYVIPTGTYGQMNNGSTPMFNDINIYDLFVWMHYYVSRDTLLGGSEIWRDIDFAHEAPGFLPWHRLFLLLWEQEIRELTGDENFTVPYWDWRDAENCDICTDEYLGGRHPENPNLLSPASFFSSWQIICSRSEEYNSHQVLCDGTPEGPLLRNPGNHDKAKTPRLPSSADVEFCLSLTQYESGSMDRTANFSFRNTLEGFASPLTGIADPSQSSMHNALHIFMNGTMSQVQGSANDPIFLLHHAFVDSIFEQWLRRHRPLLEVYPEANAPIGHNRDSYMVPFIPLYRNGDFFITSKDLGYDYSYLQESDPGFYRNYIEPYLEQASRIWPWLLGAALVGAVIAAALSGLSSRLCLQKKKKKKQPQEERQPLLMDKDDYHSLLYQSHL
The series can be described thus: cell-free mammalian tyrosinase enzyme assay. The class given is biochemical. To be noted: cell-free enzyme extract; read-out: E: concentration of compound that produces 50% inhibition in the cell-free mammalian tyrosinase enzyme assay.
Source text: as §1, §2
A first class of compounds based upon the template compound benzohydroxamic acid were tested for tyrosinase inhibition by methods described in Curto, E. V., et al. (1999). Results of the tests are given in Examples 1-5.
as §3

For series [3], the system named is mammalian melanocyte culture. In words: mammalian melanocyte culture toxicity assay. Format: cell-based, mouse. The source says:
To determine cytotoxicity (and/or cytostasis), crystal violet or other staining methods may be used to quantify adherent cell numbers following a period of treatment by an agent.

Series [4] has as its target T1, mammalian tyrosinase. Conditions: cited from earlier work.
Series [5] relates to Mel Ab melanocyte. Conditions: cited from earlier work.
The test system of series [6] is mammalian melanocyte culture. Conditions: cited from earlier work.

Structures are written as SMILES. Converted amounts (≈) assume the structure as drawn. “And” between values parts separate entries of the source, which are not always exact repeats. Equal values may be shown once. Read-outs that look alike come from different tables or passages of the source.

With `O=C(NO)c1ccncc1` [ID-245], the IC50 turned out to be 183 µM in series [1] (Mus musculus, Mel-Ab) and 3.2 µM in series [2]. Further, in series [3], the “T: concentration of compound that results in 50% reduction in cell number in the mammalian melanocyte culture toxicity assay” value was 566 µM.

In the case of `O=C(NO)c1ccccc1O` [ID-282, Salicylhydroxamic acid], the IC50 in series [2] is 3.7 µM. Further, in series [3], the “T: concentration of compound that results in 50% reduction in cell number in the mammalian melanocyte culture toxicity assay” value was 974 µM.

In the case of `Nc1ccccc1C(=O)NO` [ID-318, 2-Aminobenzohydroxamic acid], the IC50 amounted to 431 µM in series [1] (Mus musculus, Mel-Ab) and 19 µM in series [2]. The “T: concentration of compound that results in 50% reduction in cell number in the mammalian melanocyte culture toxicity assay” value in series [3] turned out to be 600 µM.

In the case of `O=C(NO)c1ccccc1` [ID-357, Benzohydroxamic acid], the IC50 was 64 µM in series [1] (Mus musculus, Mel-Ab) and 0.82 µM in series [2]. The “T: concentration of compound that results in 50% reduction in cell number in the mammalian melanocyte culture toxicity assay” value in series [3] was 64 µM.

For the compound `COc1ccc(C(=O)NO)cc1OC` [ID-456, 3,4-Dimethoxybenzohydroxamic acid], the IC50 in series [1] (Mus musculus, Mel-Ab) was found to be 576 µM; in series [2] it was 15 µM. Also, in series [3], the “T: concentration of compound that results in 50% reduction in cell number in the mammalian melanocyte culture toxicity assay” value was determined as 641 µM.

In the case of `COc1ccc(C(=O)N[O-])cc1OC.[K+]` [ID-458, Potassium salt of 3,4-dimethoxy-benzohydroxamic acid], the IC50 in series [1] came out at 637 µM; in series [2] it was 23 µM. For the same compound, in series [3], the “T: concentration of compound that results in 50% reduction in cell number in the mammalian melanocyte culture toxicity assay” value amounted to 624 µM.

For the compound `Nc1cccc(C(=O)NO)c1` [ID-461, 3-Aminobenzohydroxamic acid], the IC50 in series [1] (Mus musculus, Mel-Ab) is 225 µM; in series [2], 4 µM. Besides, the “T: concentration of compound that results in 50% reduction in cell number in the mammalian melanocyte culture toxicity assay” value in series [3] is >1000 µM.

As for `COc1ccc(C(=O)NO)c(O)c1` [ID-462], the IC50 was > 1000 µM in series [1] (Mus musculus, Mel-Ab) and 3.6 µM in series [2]. The “T: concentration of compound that results in 50% reduction in cell number in the mammalian melanocyte culture toxicity assay” value in series [3] was >1000 µM.

Consider `CC(=O)c1ccc(O)c(C(=O)NO)c1` [ID-474], for which the IC50 was > 1000 µM in series [1] (Mus musculus, Mel-Ab) and 51 µM in series [2]. The “T: concentration of compound that results in 50% reduction in cell number in the mammalian melanocyte culture toxicity assay” value in series [3] was >1000 µM.

As to `Nc1ccc(C(=O)NO)cc1` [ID-476, 4-Aminobenzohydroxamic acid], the IC50 was 64 µM in series [1] (Mus musculus, Mel-Ab) and 0.34 µM in series [2]. In series [3], the “T: concentration of compound that results in 50% reduction in cell number in the mammalian melanocyte culture toxicity assay” value is 550 µM.

For the compound `CCCCOc1ccc(C(=O)NO)cc1` [ID-477, 4-Butoxybenzohydroxamic acid], the IC50 stood at 326 µM in series [1] (Mus musculus, Mel-Ab) and 12 µM in series [2]. Further, in series [3], the “T: concentration of compound that results in 50% reduction in cell number in the mammalian melanocyte culture toxicity assay” value was >554 µM.

With `COc1cccc(C(=O)NO)c1` [ID-478, 3-Methoxybenzohydroxamic acid], the IC50 worked out at 148 µM in series [1] (Mus musculus, Mel-Ab) and 0.91 µM in series [2]. Moreover, in series [3], the “T: concentration of compound that results in 50% reduction in cell number in the mammalian melanocyte culture toxicity assay” value stood at 580 µM.

As for `COc1ccc(C(=O)N[O-])cc1.[K+]` [ID-479, Potassium salt of 4-methoxybenzohydroxamic acid], the IC50 in series [1] is 43 µM; in series [2] it was 1.67 µM. In series [3], the “T: concentration of compound that results in 50% reduction in cell number in the mammalian melanocyte culture toxicity assay” value was 64 µM.

For `COc1ccc(C(=O)NO)cc1` [ID-480, 4-Methoxybenzohydroxamic acid], the IC50 in series [1] (Mus musculus, Mel-Ab) was determined as 57 µM; in series [2], 1.26 µM. Moreover, in series [3], the “T: concentration of compound that results in 50% reduction in cell number in the mammalian melanocyte culture toxicity assay” value is 170 µM.

On to `Cc1cccc(C(=O)NO)c1` [ID-481, 3-Methylbenzohydroxamic acid], for which the IC50 in series [1] (Mus musculus, Mel-Ab) is 60 µM; in series [2] it was < 0.25 µM. Besides, in series [3], the “T: concentration of compound that results in 50% reduction in cell number in the mammalian melanocyte culture toxicity assay” value worked out at 522 µM.

With `O=C(NO)c1cccc(Cl)c1` [ID-482, 3-Chlorobenzohydroxamic acid], the IC50 in series [1] (Mus musculus, Mel-Ab) was 40 µM; in series [2] it was < 0.25 µM. In addition, in series [3], the “T: concentration of compound that results in 50% reduction in cell number in the mammalian melanocyte culture toxicity assay” value stood at 577 µM.

Turning to `COc1ccccc1C(=O)NO` [ID-483, 2-Methoxybenzohydroxamic acid], the IC50 turned out to be 807 µM in series [1] (Mus musculus, Mel-Ab) and 32 µM in series [2]. The “T: concentration of compound that results in 50% reduction in cell number in the mammalian melanocyte culture toxicity assay” value in series [3] worked out at 900 µM.

As for `CC(=O)Nc1ccccc1C(=O)NO` [ID-484, 2-Acetamidobenzohydroxamic acid], the IC50 in series [1] (Mus musculus, Mel-Ab) was > 1000 µM; in series [2], > 231 µM. In addition, in series [3], the “T: concentration of compound that results in 50% reduction in cell number in the mammalian melanocyte culture toxicity assay” value was >1000 µM.

Turning to `Cc1cccc(C(=O)N(C)O)c1` [ID-485, 3,N-Dimethylbenzohydroxamic acid], the IC50 in series [1] (Mus musculus, Mel-Ab) was > 1000 µM; in series [2], 68 µM. Moreover, the “T: concentration of compound that results in 50% reduction in cell number in the mammalian melanocyte culture toxicity assay” value in series [3] is >1000 µM.

With `CC(=O)Nc1cccc(C(=O)NO)c1` [ID-486, 3-Acetamidobenzohydroxamic acid], the IC50 in series [1] (Mus musculus, Mel-Ab) worked out at 369 µM; in series [2], 5.3 µM. In series [3], the “T: concentration of compound that results in 50% reduction in cell number in the mammalian melanocyte culture toxicity assay” value is >1000 µM.

Turning to `Cc1ccc(C(=O)NO)cc1` [ID-497, 4-Methylbenzohydroxamic acid], the IC50 in series [1] (Mus musculus, Mel-Ab) turned out to be 45 µM; in series [2], 0.29 µM. In addition, the “T: concentration of compound that results in 50% reduction in cell number in the mammalian melanocyte culture toxicity assay” value in series [3] was determined as 160 µM.

With `CN(C)c1ccc(C(=O)NO)cc1` [ID-498, 4-Dimethylaminobenzo-hydroxamic acid], the IC50 in series [1] (Mus musculus, Mel-Ab) was 44 µM; in series [2], 2.2 µM. The “T: concentration of compound that results in 50% reduction in cell number in the mammalian melanocyte culture toxicity assay” value in series [3] worked out at 136 µM.

As to `Cc1ccc(C(=O)NO)cc1N` [ID-499, 13-Amino-4-methyl-benzohydroxamic acid], the IC50 in series [1] (Mus musculus, Mel-Ab) came to 177 µM; in series [2], 6.4 µM. Further, the “T: concentration of compound that results in 50% reduction in cell number in the mammalian melanocyte culture toxicity assay” value in series [3] came out at 747 µM.

On to `O=C(NO)c1cccc(Oc2ccccc2)c1` [ID-500, 3-Phenoxybenzohydroxamic acid], for which the IC50 is 234 µM in series [1] (Mus musculus, Mel-Ab) and 0.16 µM in series [2]. Besides, in series [3], the “T: concentration of compound that results in 50% reduction in cell number in the mammalian melanocyte culture toxicity assay” value was >300 µM.

Consider `Oc1ccc(O)cc1` [hydroquinone], for which, in series [4], the “enzymatic inhibition” value is “minimal enzymatic inhibition”. Moreover, the “IC50 on Mel-Ab culture” value in series [5] (positive control, owing to cytotoxicity and not inhibition of pigmentation per se) was “low micrograms per milliliter range”. Moreover, the “melanocyte cytotoxicity” value in series [6] is recorded as “potent melanocyte cytotoxicity”.

Regarding `COC(=O)c1cc(O)ccc1O` [methyl gentisate], the IC50 in series [4] (Curto et al. (1999), read-out: IC50 against tyrosinase in cell-free assays (converted)) was 67 µM and 66.6 µM; in series [5] (Curto et al. (1999), read-out: IC50 in pigmentation inhibition in melanocyte cell cultures), 184 µM; in series [6] (Curto et al. (1999), read-out: melanocyte cytotoxicity IC50), 707 µM. Besides, the “IC50 in pigmentation inhibition in melanocyte cell cultures” value in series [5] (Curto et al. (1999)) was 30.9 ± 5 µg/mL (≈ 184 µM). In addition, in series [6] (Curto et al. (1999)), the “melanocyte cytotoxicity IC50” value was 118.7 ± 12 µg/mL.
